39 molecules from patent US20220024891A1 (The Board of Regents of the University of Texas System, priority 2018, published 2022) can be followed below.

A short description of series [1]: Mouse PK analysis, plasma. It counts as in vivo. Conditions: for Plasma pK AUClast (ng · min/mL) / Plasma pK Cmax (ng/mL) / Plasma pK Tmax (min) / Plasma pK Vz (mL): 10 mg/kg.
The nature of series [2]: Mouse PK analysis, large intestine. It counts as in vivo. Particulars: 10 mg/kg; for AUC(0-t): female, CD-1, mouse, large intestine, read-out: Large Intestinal pK AUClast (converted).

Like-named read-outs stand apart in the source and are kept apart here.

For the molecule `COc1ccc(S(=O)(=O)N2CCC(N3CCC(C)CC3)CC2)cc1` [compound 6, 1′-((4-methoxyphenyl)sulfonyl)-4-methyl-1,4′-bipiperidine], in series [1] (ip), the “Plasma pK AUClast (ng · min/mL)” value is reported as 104,103 ng · min/mL, the “Plasma pK Cmax (ng/mL)” value is listed as 2,390 ng/mL, the “Plasma pK Tmax (min)” value was found to be 10 min and the “Plasma pK Vz (mL)” value is recorded as 162 mL. In addition, in series [2] (ip), the AUC(0-t) was 12300 ng·h/mL.
The molecule `CC1CCN(C2CCN(S(=O)(=O)c3ccc(Cl)cc3)CC2)CC1` [compound 16, 1′-((4-Chlorophenyl)sulfonyl)-4-methyl-1,4′-bipiperidine] gave a melting point of 152 to 155 °C. The Cmax in series [1] (female, CD-1, mouse, plasma, iv, dosed intravenously (i.v.)) lay in the range of 191 to 742 ng/mL. In series [1] (iv), the “Plasma pK AUClast (ng · min/mL)” value is on record as 21,581 ng · min/mL, the “Plasma pK Cmax (ng/mL)” value is on record as 191 ng/mL, the “Plasma pK Tmax (min)” value was determined as 30 min and the “Plasma pK Vz (mL)” value is 1243 mL. In series [2] (iv), the AUC(0-t) was 4380 ng·h/mL and the “Large Intestinal pK Tmax (min)” value is recorded as 10 min.
In turn, `CC1CCN(C2CCN(S(=O)(=O)c3cccc(-c4ccccc4C(F)(F)F)c3)CC2)CC1` [compound 68, 4-Methyl-1′-((2′-(trifluoromethyl)-[1,1′-biphenyl]-3-yl)sulfonyl)-1,4′-bipiperidine] yielded a melting point of 110 to 112 °C.
Consider `Cc1cc(C)cc(-c2cccc(S(=O)(=O)N3CCC(N4CCC(C)CC4)CC3)c2)c1` [compound 69, 1′-((3′,5′-Dimethyl-[1,1′-biphenyl]-3-yl)sulfonyl)-4-methyl-1,4′-bipiperidine], for which the melting point was 120 to 123 °C.
For the molecule `CC1CCN(C2CCN(S(=O)(=O)c3cccnc3)CC2)CC1` [compound 71, 4-Methyl-1′-(pyridin-3-ylsulfonyl)-1,4′-bipiperidine], the melting point was in the range of 144 to 147 °C.
As for `CC1CCN(C2CCN(S(=O)(=O)c3cccnc3Cl)CC2)CC1` [compound 72, 1′-((2-Chloropyridin-3-yl)sulfonyl)-4-methyl-1,4′-bipiperidine], the melting point was in the range of 122 to 124 °C.
`CC1CCN(C2CCN(S(=O)(=O)c3cccnc3F)CC2)CC1` [compound 73, 1′-((2-Fluoropyridin-3-yl)sulfonyl)-4-methyl-1,4′-bipiperidine] had a melting point of 120 to 123 °C.
Take `CC1CCN(C2CCN(S(=O)(=O)c3ccc(Cl)nc3)CC2)CC1` [compound 74, 1′-((6-Chloropyridin-3-yl)sulfonyl)-4-methyl-1,4′-bipiperidine]: the melting point was in the range of 178 to 182 °C.
Molecule `CC1CCN(C2CCN(S(=O)(=O)c3cncc(Br)c3)CC2)CC1` [compound 75, 1′-((5-Bromopyridin-3-yl)sulfonyl)-4-methyl-1,4′-bipiperidine] came in with a melting point of 171 to 173 °C.
With `CC1CCN(C2CCN(S(=O)(=O)c3cn(C)c(=O)n(C)c3=O)CC2)CC1` [compound 76, 1,3-Dimethyl-5-((4-methyl-[1,4′-bipiperidin]-1′-yl)sulfonyl)pyrimidine-2,4(1H,3H)-dione], the melting point lay within 212 to 215 °C.
Consider `CC1CCN(C2CCN(S(=O)(=O)c3nccn3C)CC2)CC1` [compound 77, 4-Methyl-1′-((1-methyl-1H-imidazol-2-yl)sulfonyl)-1,4′-bipiperidine], for which the melting point lay within 153 to 156 °C.
Take `CC1CCN(C2CCN(S(=O)(=O)c3cn(C)cn3)CC2)CC1` [compound 78, 4-Methyl-1′-((1-methyl-1H-imidazol-4-yl)sulfonyl)-1,4′-bipiperidine]: the melting point is 139 to 142 °C.
`Cc1noc(C)c1S(=O)(=O)N1CCC(N2CCC(C)CC2)CC1` [compound 79, 3,5-Dimethyl-4-((4-methyl-[1,4′-bipiperidin]-1′-yl)sulfonyl)isoxazole] gave a melting point of 158 to 161 °C.
In the case of `CC1CCN(C2CCN(S(=O)(=O)c3cnc(Cl)s3)CC2)CC1` [compound 80, 2-Chloro-5-((4-methyl-[1,4′-bipiperidin]-1′-yl)sulfonyl)thiazole], the melting point was in the range of 141 to 143 °C.
On the same count and under the same terms, in the case of `Cc1nc(Cl)sc1S(=O)(=O)N1CCC(N2CCC(C)CC2)CC1` [compound 81, 2-Chloro-4-methyl-5-((4-methyl-[1,4′-bipiperidin]-1′-yl)sulfonyl)thiazole] it was 117 to 119 °C.
`CC1CCN(C2CCN(S(=O)(=O)c3sc(Cl)nc3C3CC3)CC2)CC1` [compound 82, 2-Chloro-4-cyclopropyl-5-((4-methyl-[1,4′-bipiperidin]-1′-yl)sulfonyl)thiazole]: the melting point lay within 139 to 141 °C.
On to `CC1CCN(C2CCN(S(=O)(=O)c3cc(Br)cc4c3OCC4)CC2)CC1` [compound 86, 1′-((5-Bromo-2,3-dihydrobenzofuran-7-yl)sulfonyl)-4-methyl-1,4′-bipiperidine], for which the melting point is 128 to 132 °C.
In turn, `CC1CCN(C2CCN(S(=O)(=O)c3ccc(Cl)c4ccccc34)CC2)CC1` [compound 88, 1′-((4-Chloronaphthalen-1-yl)sulfonyl)-4-methyl-1,4′-bipiperidine] yielded a melting point of 129 to 132 °C.
The molecule `CC1CCN(C2CCN(S(=O)(=O)c3cccc4cnccc34)CC2)CC1` [compound 90, 5-((4-Methyl-[1,4′-bipiperidin]-1′-yl)sulfonyl)isoquinoline] returned a melting point of 123 to 126 °C.
As for `CC1CCCN(C2CCN(S(=O)(=O)c3ccc(OC(F)F)cc3)CC2)C1` (centres unmarked) [compound 91, 1′-((4-(Difluoromethoxy)phenyl)sulfonyl)-3-methyl-1,4′-bipiperidine], the melting point fell in the range of 88 to 91 °C.
Still for that read-out and setting: the figure for `C#CCC1CCN(C2CCN(S(=O)(=O)c3ccc(Br)cc3)CC2)CC1` [compound 92, 1′-((4-Bromophenyl)sulfonyl)-4-(prop-2-yn-1-yl)-1,4′-bipiperidine] is 161 to 164 °C.
The same measure, in the same setting: in the case of `Cc1cc(C)c(S(=O)(=O)N2CCC(N3CCC(CCO)CC3)CC2)c(C)c1` [compound 100, 2-(1′-(Mesitylsulfonyl)-[1,4′-bipiperidin]-4-yl)ethanol] it was 82 to 85 °C; in that of `Cc1cc(C)c(S(=O)(=O)N2CCC(N3CCC(O)CC3)CC2)c(C)c1` [compound 101, 1′-(Mesitylsulfonyl)-[1,4′-bipiperidin]-4-ol], 120 to 123 °C.
`Cc1cc(C)c(S(=O)(=O)N2CCC(N3CCC(c4ccccc4)CC3)CC2)c(C)c1` [compound 111, 1′-(Mesitylsulfonyl)-4-phenyl-1,4′-bipiperidine] returned a melting point of 141 to 144 °C.
In turn, `Cc1cc(C)c(S(=O)(=O)N2CCC(C(=O)N3CCC(C)CC3)CC2)c(C)c1` [compound 113, (1-(Mesitylsulfonyl)piperidin-4-yl 4-methylpiperidin-1-yl)methanone] displayed a melting point of 122 to 124 °C.
On to `Cc1ccc(NC2CCN(S(=O)(=O)c3c(C)cc(C)cc3C)CC2)cc1` [compound 114, 1-(Mesitylsulfonyl)-N-(p-tolyl)piperidin-4-amine], for which the melting point fell in the range of 148 to 151 °C.
In turn, `Cc1ccc(C2CCN(S(=O)(=O)c3c(C)cc(C)cc3C)CC2)cc1` [compound 115, 1-(Mesitylsulfonyl)-4-(p-tolyl)piperidine] registered a melting point of 87 to 90 °C.
Molecule `Cc1cc(C)c(S(=O)(=O)N2CCC(c3ccccc3)CC2)c(C)c1` [compound 116, 1-(Mesitylsulfonyl)-4-phenylpiperidine] showed a melting point of 88 to 90 °C.
The same measure, in the same setting: the figure for `CCCC(=O)NC1CCN(S(=O)(=O)c2c(C)cc(C)cc2C)CC1` [compound 118, N-(1-(Mesitylsulfonyl)piperidin-4-yl)butyramide] is 144 to 147 °C; for `CC1CCN(C2CCN(C(=O)c3ccc(OC(F)(F)F)cc3)CC2)CC1` [compound 119, (4-Methyl-[1,4′-bipiperidin]-1′-yl)(4-(trifluoromethoxy)phenyl)methanone] it is 72 to 75 °C; for `Cc1cc(C)c(S(=O)(=O)c2ccc(N3CCC(C)CC3)cc2)c(C)c1` [compound 125, 1-(4-(Mesitylsulfonyl)phenyl)-4-methylpiperidine] it is 103 to 105 °C.
The molecule `Cc1cc(C)c(S(=O)(=O)N2CCN(C3CN4CCC3CC4)CC2)c(C)c1` (centres unmarked) [compound 127, 3-(4-(Mesitylsulfonyl)piperazin-1-yl)quinuclidine] had a melting point of more than 300 °C.
On to `Cc1cc(C)c(S(=O)(=O)N2CCN(C34CC5CC(CC(C5)C3)C4)CC2)c(C)c1` [compound 128, 1-(Adamantan-1-yl)-4-(mesitylsulfonyl)piperazine], for which the melting point was in the range of 182 to 184 °C.
The molecule `Cc1cc(C)c(S(=O)(=O)N2CCC(NC3CCCC3)CC2)c(C)c1` [compound 132, N-cyclopentyl-1-(mesitylsulfonyl)piperidin-4-amine] registered a melting point of 88 to 92 °C.
Turning to `Cc1cc(C)c(S(=O)(=O)N2CCC(CO)CC2)c(C)c1` [compound 137, (1-(mesitylsulfonyl)piperidin-4-yl)methanol], the melting point lay within 85 to 88 °C.
`Cc1cc(C)c(S(=O)(=O)N2CCC(C=O)CC2)c(C)c1` [compound 138, 1-(mesitylsulfonyl)piperidine-4-carbaldehyde] returned a melting point of 71 to 74 °C.
Still for that read-out and setting: in the case of `CC1CCN(CC2CCN(S(=O)(=O)c3ccc4ncsc4c3)CC2)CC1` [compound 148, 6-((4-((4-methylpiperidin-1-yl)methyl)piperidin-1-yl)sulfonyl)benzo[d]thiazole] it was 137 to 139 °C.
The same measure, in the same setting: in the case of `CC1CCN(CC2CCN(S(=O)(=O)c3ccc(-c4ccccc4F)cc3)CC2)CC1` [compound 154, 1-((2′-fluoro-[1,1′-biphenyl]-4-yl)sulfonyl)-4-((4-methylpiperidin-1-yl)methyl)piperidine] it was 136 to 139 °C.
Molecule `CC1CCN(CC2CCN(S(=O)(=O)c3ccc(-c4ccccc4)cc3)CC2)CC1` [compound 155, 1-([1,1′-biphenyl]-4-ylsulfonyl)-4-((4-methylpiperidin-1-yl)methyl)piperidine] registered a melting point of 148 to 151 °C.

As usually defined, the Cmax is the maximum level reached in the sampled fluid or tissue. One may read the melting point as the temperature, or range, at which the solid turns liquid.
